According to patent publication US20250261637A1, “DISINFECTANT COMPOSITIONS AND METHODS THEREOF” (HALOMINE INC., priority 2022, published 2025):

Tests used:
S. aureus [1] = test: MBC testing of chlorinated HASA; assay type: cell-based, Staphylococcus aureus; settings: for MBC: Staphylococcus aureus
Experimental: (§1) NaDCC, NaOC, HOC, and HASA-Cl solutions were prepared at chlorine concentrations of 300, 250, 200, 150, 100, and 50 ppm and mixed with a S. aureus suspension containing […] as an organic load for 30 seconds. After 30 seconds, the mixtures were neutralized with Na2S2O3 to quench oxidative chlorine, added to tryptic soy broth (TSB), and incubated (e.g., for 48 hours at 37° C.). Following the incubation, samples were assessed for S. aureus growth inhibition to determine the minimum inhibitory concentration (MIC). […] To determine the minimum biocidal concentration (MBC), samples were plated on agar and viable colonies counted. […] The analysis was run in duplicate with a 8.34 log inoculum concentration of S. aureus in the first analysis and a 8.37 log inoculum concentration of S. aureus in the second analysis.
(§2) NaDCC, NaOCl, HOC, and HASA-Cl solutions were prepared at chlorine concentrations of 800, 700, 600, 500, 400, 300, 200, and 100 ppm and mixed with a suspension of S. aureus containing 10% FBS or 15% as an organic load and reacted for 1 minute or 5 minutes. After reacting, the mixtures were neutralized with Na2S2O3 to quench oxidative chlorine, added to tryptic soy broth (TSB), and incubated (e.g., for 48 hours at 37° C.). Following the incubation, samples were assessed for S. aureus growth inhibition to determine the MIC. […] To determine the MBC, samples were plated on agar and viable colonies counted. […] The analysis was run in duplicate with a 8.23 log inoculum concentration of S. aureus.
(§3) Three solutions of HASA-Cl (HASA-Cl_D, HASA-Cl_E, and HASA-Cl_F) were prepared by chlorinating HASA55 in aqueous HOCl at varying HASA55:chlorine stoichiometric molar ratios, isolating the chlorinated HASA55-Cl polymer, and dissolving the chlorinated polymer in water. The three HASA-Cl solutions and HASA-HOCl, NaDCC, NaOCl, and HOCl solutions were diluted to chlorine concentrations of 300, 250, 200, 150, 100, and 50 ppm, mixed with a suspension of S. aureus with 5% FBS organic load, and reacted for 30 seconds. After reacting, the mixtures were neutralized to remove oxidative chlorine, added to tryptic soy broth, and incubated (e.g. for 48 hours at 37° C.). Following the incubation, samples were assessed for S. aureus growth inhibition to determine the MIC. To determine the MBC, samples were plated on agar and viable colonies counted. […] The analysis was run in duplicate with a 8.34 log inoculum concentration of S. aureus in the first experiment and a 8.37 log inoculum concentration of S. aureus in the second experiment.

[2] = Chlorine stability of chlorinated HA and HASA55 solutions over 10 weeks (available chlorine, DPD); assay type: physicochemical
Experimental: (§4) Various aqueous electrophilic halogen solutions were used to dissolve HASA55 powder. Undiluted disinfexol stock solution was used as HOCl source, Clorox® germicidal bleach diluted 1:48 volumetrically was used as a NaOCl source, and a stock solution of Purtab prepared by dissolving 1 tablet in a quart of water was used as a NaDCC source. Various samples of HASA55 solutions chlorinated with HOCl, NaOCl, and NaDCC were prepared by dissolving HASA55 in the electrophilic halogen source solutions at stoichiometric molar ratios of 2:1, 1:1, 1:2, 1:4, and 1:8 HASA55:electrophilic halogen source for HOCl and NaOCl, and at stoichiometric molar ratios of 4:1, 2:1, 1:1, 1:2, and 1:4 HASA55:NaDCC. Various samples of HA monomers chlorinated with HOCl, NaOCl, and NaDCC were prepared by dissolving HA monomer in the electrophilic halogen source solutions at stoichiometric molar ratios of 2:1, 1:1, 1:2, 1:3, and 1:6 HA:electrophilic halogen source for HOCl and NaOCl, and at stoichiometric molar ratios of 4:1, 2:1, 1:1, 1:1.5, and 1:3 for HA:NaDCC. The resulting solutions were sealed and stored in air-tight bottles to assess the amount of available chlorine and the pH of the solution over time. Available chlorine concentrations were calculated according to a spectrophotometric method using a DPD indicator as detailed above and pH was calculated using a pH meter.

S. aureus [3] = test: MIC testing of chlorinated HASA; assay type: cell-based, Staphylococcus aureus; settings: for MIC: Staphylococcus aureus
Experimental: as §1, §2, §3

[4] = pH of chlorinated HA and HASA55 solutions over time; assay type: physicochemical; settings: HOCl series, 10 weeks
Experimental: as §4

[5] = Residual chlorine content of dried chlorinated N-halamine coatings on SS304 coupons; assay type: physicochemical; settings: for Estimated residual Cl (%): SS304 coupon
Experimental: HASA-Cl solutions were prepared according to procedures detailed in EXAMPLE 6 above. Stainless steel 304 (SS304) coupons with a dimension of 1″×1″ and thickness of 0.024″ were scrubbed with a sponge and 1% detergent (e.g., Liquinox®), rinsed with deionized water, and dried. To the dried SS304 coupons, a 1 mL sample of a HASA-Cl, HA-Cl, or electrophilic halogen solution was pipetted using a micropipette without rinsing or wiping the coupon after pipetting. The sample coupons coated with HASA-Cl HA-Cl, and electrophilic halogen sources, were stored at ambient temperature and humidity with indoor light exposure. […] HASA/HOCl solutions with high stoichiometric molar amounts of HASA (2:1 HASA:HOCl and 1:1 HASA:HOCl) formed coatings with a flaked dried polymer appearance, while the other solutions formed coatings with a stain-like appearance with a majority of the SS304 base substrate exposed.
To extract chlorine from the surface of a SS304 sample coupon, a sample coupon was added to a centrifuge tube containing 20 mL of deionized water, 200 mg of K1, and 10 drops of 4N acetic acid. The mixture containing the sample coupon was mixed by shaking (e.g. at 120 rpm for 10 minutes), and solution removed and added to a glass sample cell for analysis by spectrophotometry with a DPD indicator according to the procedure detailed above. The amount of chlorine was calculated against a chlorine standard curve. Chlorine density was calculated according to the following formula: […]
The bars are presented in the order Day 1, Day 2, Day 3, Day 7, and Day 28. […] At 28 days, the chlorine density of HASA/HOCl and HA/HOCl solutions decreased, to around half of the Day 1 chlorine density. […] Estimated residual chlorine percentages were calculated from the ratio of the amount of chlorine retrieved from the dried coating over the amount of chlorine deposited in the 1 mL solution. TABLE 19 summarizes the estimated residual chlorine percentages of HA/HOCl and HASA/HOCl solutions over the 28 days. Estimated residual chlorine percentages were stable for up to 1 week for HASA/HOCl solutions with stoichiometric molar ratios of HASA:HOCl higher than 1:2, aligning with the chlorine density data.

[6] = 5% FBS organic load, 30 seconds (Table 18)
[7] = Exp 1, 5 FBS organic load, 30 seconds, 8.34 log inoculum
[8] = Exp 2, 5 FBS organic load, 30 seconds, 8.37 log inoculum
[9] = Exp 1, 5 FBS organic load, 30 seconds, 8.34 log inoculum, ppm chlorine

Which results are given for O=c1nc([O-])n(Cl)c(=O)n1Cl.[Na+] [NaDCC, sodium dichloroisocyanurate]?
MBC value (S. aureus [1]; [6]): 150 ppm; MBC value (S. aureus [1]; 10% FBS, 1 min): 200 ppm; MBC value (S. aureus [1]; 10% FBS, 5 min): 200 ppm; MBC value (S. aureus [1]; 15% FBS, 1 min): 300 ppm; MBC value (S. aureus [1]; 15% FBS, 5 min): 200 ppm; MBC value (S. aureus [1]; [7]): 150 ppm; MBC value (S. aureus [1]; [8]): 150 ppm; available chlorine over time (in words) ([2]; NaDCC series, 6-week time period): low available chlorine levels; available chlorine ([2]; NaDCC series, Day 0): 1120; available chlorine ([2]; NaDCC series, W 1): 967; available chlorine ([2]; NaDCC series, W 3): 753; available chlorine ([2]; NaDCC series, W 6): 530; available chlorine ([2]; NaDCC series, W 10): 330; MIC value (S. aureus [3]; [6]): 100 ppm; MIC value (S. aureus [3]; 10% FBS, 1 min): 200 ppm; MIC value (S. aureus [3]; 10% FBS, 5 min): 200 ppm; MIC value (S. aureus [3]; 15% FBS, 1 min): 300 ppm; MIC value (S. aureus [3]; 15% FBS, 5 min): 200 ppm; MIC value (S. aureus [3]; [9]): 150 ppm; MIC value (S. aureus [3]; [8]): 100 ppm

For OCl [HOCl, hypochlorous acid], which “pH over time (in words)” value [4] is on record?
The value was “stable pH”.

And the MBC value (S. aureus [1]; [6])?
The MBC value was 150 ppm.

What about the MBC value (S. aureus [1]; 10% FBS, 1 min) of the same compound?
Its MBC value is 300 ppm.

And the MBC value (S. aureus [1]; 10% FBS, 5 min)?
The MBC value was 200 ppm.

And the MBC value (S. aureus [1]; 15% FBS, 1 min)?
Its MBC value is 300 ppm.

And the MBC value (S. aureus [1]; 15% FBS, 5 min)?
Its MBC value is 300 ppm.

And the MBC value (S. aureus [1]; [7])?
The MBC value was 150 ppm.

What about the MBC value (S. aureus [1]; [8]) of the same compound?
The MBC value was 100 ppm.

What about the “chlorine loss (in words)” value ([2]; HOCl series, 10 week period) of the same compound?
The value was “lowest chlorine loss”.

What about the available chlorine ([2]; HOCl series, Day 0) of the same compound?
Its available chlorine is 707 mg/L.

And the available chlorine ([2]; HOCl series, W 0)?
The available chlorine was 727 mg/L.

And the available chlorine ([2]; HOCl series, W 4)?
The available chlorine was 687 mg/L.

And the available chlorine ([2]; HOCl series, W 6)?
Its available chlorine is 637 mg/L.

And the available chlorine ([2]; HOCl series, W 10)?
Its available chlorine is 607 mg/L.

What about the available chlorine ([2]; NaOCl series, Day 0) of the same compound?
Its available chlorine is 1443.

What about the available chlorine ([2]; NaOCl series, W 1) of the same compound?
The available chlorine was 1447.

And the available chlorine ([2]; NaOCl series, W 3)?
Its available chlorine is 1443.

What about the available chlorine ([2]; NaOCl series, W 6) of the same compound?
Its available chlorine is 1520.

What about the available chlorine ([2]; NaOCl series, W 10) of the same compound?
Its available chlorine is 1537.

And the “Estimated residual Cl (%)” value ([5]; 1 mL deposited, Day 1)?
Its value is 0.1%.

What about the “Estimated residual Cl (%)” value ([5]; Day 2) of the same compound?
Its value is 0.2%.

What about the “Estimated residual Cl (%)” value ([5]; Day 3) of the same compound?
The value was 0.3%.

And the “Estimated residual Cl (%)” value ([5]; Day 7)?
Its value is 0.1%.

And the “Estimated residual Cl (%)” value ([5]; Day 28)?
Its value is 0.2%.

What about the “residual chlorine density (in words)” value ([5]; SS304 coupons, Day 1) of the same compound?
The value was “no residual chlorine density”.

And the MIC value (S. aureus [3]; [6])?
The MIC value was 150 ppm.

And the MIC value (S. aureus [3]; 10% FBS, 1 min)?
Its MIC value is 300 ppm.

What about the MIC value (S. aureus [3]; 10% FBS, 5 min) of the same compound?
The MIC value was 100 ppm.

And the MIC value (S. aureus [3]; 15% FBS, 1 min)?
Its MIC value is 300 ppm.

What about the MIC value (S. aureus [3]; 15% FBS, 5 min) of the same compound?
Its MIC value is 200 ppm.

What about the MIC value (S. aureus [3]; [9]) of the same compound?
Its MIC value is 150 ppm.

What about the MIC value (S. aureus [3]; [8]) of the same compound?
Its MIC value is 100 ppm.

What does the source list for OCl [NaOCl, sodium hypochlorite]?
MBC value (S. aureus [1]; [8]): 250 ppm; MBC (S. aureus [1]; [6]): 200 µg/mL; MBC (S. aureus [1]; 1 min, 10% FBS): 400 µg/mL; MBC (S. aureus [1]; 1 min, 15% FBS): 500 µg/mL; MBC (S. aureus [1]; 5 min, 10% FBS): 200 µg/mL; MBC (S. aureus [1]; 5 min, 15% FBS): 400 µg/mL; MBC (S. aureus [1]; [7]): 200 µg/mL; chlorine levels and pH over time (in words) ([2]; NaOCl series): no chlorine loss and no change in pH; MIC (S. aureus [3]; [6]): 200 µg/mL; MIC (S. aureus [3]; 1 min, 10% FBS): 400 µg/mL; MIC (S. aureus [3]; 1 min, 15% FBS): 500 µg/mL; MIC (S. aureus [3]; 5 min, 10% FBS): 100 µg/mL; MIC (S. aureus [3]; 5 min, 15% FBS): 100 µg/mL; MIC (S. aureus [3]; [9]): 100 µg/mL; MIC (S. aureus [3]; [8]): 100 µg/mL
